Read-outs that look alike come from different tables or passages of the source.
Test system: HIV-1 LAI envelope single-round infectious reporter virus
Assay: Single-round infectious HIV-1 LAI luciferase reporter virus infection of MT2 cells
Assay type: cell-based
Settings: Human immunodeficiency virus 1, MT2, 72 h
Text: • Virus production—Human embryonic Kidney cell line, 293T (HEK 293T), was propagated in Dulbecco's Modified Eagle Medium (Invitrogen, Carlsbad, Calif.) containing 10% fetal bovine serum (FBS, Sigma, St. Louis, Mo.). The human T-cell leukemia cell MT2 (AIDS Research and Reference Reagent Program, Cat. 237) was propagated in RPMI 1640 (Invitrogen, Carlsbad, Calif.) containing 10% fetal bovine serum (FBS, Hyclone, Logan, Utah) • Virus infection—Single-round infectious reporter virus was produced by co-transfecting HEK 293T cells with plasmide expressing the HIV-1 LAI envelope along with a plasmid containing an HIV-1 LAI proviral cDNA with the envelope gene replaced by a firefly luciferase reporter gene (Chen et al., Ref. 41). Transfections were performed using lipofectAMINE PLUS reagent as described by the manufacturer (Invitrogen, Carlsbad, Calif.).
• 1. MT2 cells were plated in black, 384 well plates at a cell density of 5×10^3 cells per well in 25 μl RPMI 1640 containing 10% FBS. • 2. Compound (diluted in dimethylsulfoxide and growth medium) was added to cells at 12.5 μl/well, so that the final assay concentration would be ≦50 nM. • 3. 12.5 μl of single-round infectious reporter virus in Dulbecco's Modified Eagle Medium was added to the plated cells and compound at an approximate multiplicity of infection (MOI) of 0.01, resulting in a final volume of 50 μl per well. • 4. Virus-infected cells were incubated at 37 degrees Celsius in a CO2 incubator and harvested 72 h after infection. • 5. Viral infection was monitored by measuring luciferase expression in the infected cells using a luciferase reporter gene assay kit (Steady-Glo, Promega, Madison, Wis.) as described by the manufacturer. Luciferase activity was then quantified by measuring luminescence using an EnVision Multilabel Plate Readers (PerkinElmer, Waltham, Mass.). • 6. The percent inhibition for each compound was calculated by quantifying the level of luciferase expression in cells infected in the presence of each compound as a percentage of that observed for cells infected in the absence of compound and subtracting such a determined value from 100. • 7. An EC50 provides a method for comparing the antiviral potency of the compounds of the invention. The effective concentration for fifty percent inhibition (EC50) was calculated with the Microsoft Excel Xlfit curve fitting software. For each compound, curves were generated from percent inhibition calculated at 10 different concentrations by using a four parameter logistic model (model 205). Table 1 is the key for the data in Table 2.

[1] = read-out: EC50 Group from Table 1

Compound | EC50 | EC50 [1]
COc1cnc(-n2cnc(C)n2)c2[nH]cc(C(=O)C(=O)N3CCN(C4=NCCc5ccccc54)CC3)c12 [Compound 1001] | 0.85 nM | < 500 nM
COc1cnc(-n2cnc(C)n2)c2[nH]cc(C(=O)C(=O)N3CCN(C4(c5ccccc5)CC4)CC3)c12 [Compound 1002] | – | > 500 nM
COc1cnc(-n2cnc(C)n2)c2[nH]cc(C(=O)C(=O)N3CCN(C4(c5ccccn5)CC4)CC3)c12 [Compound 1003] | – | > 500 nM
COc1cnc(-n2cnc(C(N)=O)n2)c2[nH]cc(C(=O)C(=O)N3CCN(c4nc5ccccn5n4)CC3)c12 [Compound 1004] | – | < 500 nM
CC(c1ccccc1)N1CCN(C(=O)C(=O)c2c[nH]c3c(-n4ccnn4)ncc(F)c23)CC1 (stereo not shown) [Compound 1005] | – | < 500 nM
O=C(C(=O)N1CCN(Cc2ccccn2)CC1)c1c[nH]c2c(-n3ccnn3)ncc(F)c12 [Compound 1006] | – | < 500 nM
O=C(C(=O)N1CCCN(Cc2ccccc2)CC1)c1c[nH]c2c(-n3ccnn3)ncc(F)c12 [Compound 1007] | – | < 500 nM
O=C(C(=O)N1CCCN(c2ccccn2)CC1)c1c[nH]c2c(-n3ccnn3)ncc(F)c12 [Compound 1008] | 89.4 nM | < 500 nM
O=C(C(=O)N1CCCN(c2nnnn2-c2ccccc2)CC1)c1c[nH]c2c(-n3ccnn3)ncc(F)c12 [Compound 1009] | – | < 500 nM
COc1cnc(-n2cnc(C)n2)c2[nH]cc(C(=O)C(=O)N3CCN(c4ccccc4-c4nc5ccccc5s4)CC3)c12 [Compound 1010] | – | < 500 nM
O=C(C(=O)N1CCN(c2cccc3ccccc23)CC1)c1c[nH]c2c(-n3ccnn3)ncc(F)c12 [Compound 2001] | 2.97 nM | < 500 nM
COc1cnc(-n2cnc(C)n2)c2[nH]cc(C(=O)C(=O)N3CCN(c4nccc5cccnc45)CC3)c12 [Compound 2002] | – | < 500 nM
COc1cnc(-n2cnc(C)n2)c2[nH]cc(C(=O)C(=O)N3CCN(c4cccc5ccncc45)CC3)c12 [Compound 2003] | – | < 500 nM
O=C(C(=O)N1CCN(c2cccc3cccnc23)CC1)c1c[nH]c2c(-n3ccnn3)ncc(F)c12 [Compound 2004] | – | < 500 nM
COc1cnc(-n2cnc(C)n2)c2[nH]cc(C(=O)C(=O)N3CCN(c4cccc5cccnc45)CC3)c12 [Compound 2005] | – | < 500 nM
COc1cnc(-n2cnc(C)n2)c2[nH]cc(C(=O)C(=O)N3CCN(c4ncnc5ncccc45)CC3)c12 [Compound 2006] | – | < 500 nM
COc1cnc(-n2ccnn2)c2[nH]cc(C(=O)C(=O)N3CCN(c4ncnc5ncccc45)CC3)c12 [Compound 2007] | – | < 500 nM
O=C(C(=O)N1CCN(c2ncnc3ncccc23)CC1)c1c[nH]c2c(-n3ccnn3)ncc(F)c12 [Compound 2008] | 1.24 nM | < 500 nM
